Test results: US11420958B2, “Aryl and heteroaryl substituted indole compounds” (BRISTOL-MYERS SQUIBB COMPANY, priority 2017, dated 2022)

Key:
Assay type in all cases: cell-based
human TLR7 = human TLR7 (Homo sapiens (Human), UniProt Q9NYK1); assay: TLR7 inhibition reporter assay (HEK-Blue, SEAP); conditions: HEK-Blue cells overexpressing human TLR7, gardiquimod 7.5 μM stimulation
Procedure: (§1) TLR7/8/9 Inhibition Reporter Assays
(§2) HEK-Blue™-cells (Invivogen) overexpressing human TLR7, TLR8 or TLR9 receptors were used for screening inhibitors of these receptors using an inducible SEAP (secreted embryonic alkaline phosphatase) reporter gene under the control of the IFN-β minimal promoter fused to five NF-κc Band AP-1-binding sites. Briefly, cells are seeded into Greiner 384 well plates (15000 cells per well for TLR7, 20,000 for TLR8 and 25,000 for TLR9) and then treated with test compounds in DMSO to yield a final dose response concentration range of 0.05 nM-50 μM. After a 30 minute compound pre-treatment at room temperature, the cells are then stimulated with a TLR7 ligand (gardiquimod at a final concentration of 7.5 μM), TLR8 ligand (R848 at a final concentration of 15.9 μM) or TLR9 ligand (ODN2006 at final concentration of 5 nM) to activate NF-κB and AP-1 which induce the production of SEAP. After a 22 hour incubation at 37° C., 5% CO2, SEAP levels are determined with the addition of HEK-Bue™ Detection reagent (Invivogen), a cell culture medium that allows for detection of SEAP, according to manufacturer's specifications. The percent inhibition is determined as the % reduction in the HEK-Blue signal present in wells treated with agonist plus DMSO alone compared to wells treated with a known inhibitor.

human TLR8 = human TLR8 (Homo sapiens (Human), UniProt Q9NR97); assay: TLR8 inhibition reporter assay (HEK-Blue, SEAP); conditions: HEK-Blue cells overexpressing human TLR8, R848 15.9 μM stimulation
Procedure: as §1, §2

human TLR9 = human TLR9 (Homo sapiens (Human), UniProt Q9NR96); assay: TLR9 inhibition reporter assay (HEK-Blue, SEAP); conditions: HEK-Blue cells overexpressing human TLR9, ODN2006 5 nM stimulation
Procedure: as §1, §2

human TLR7, sequence (Q9NYK1 27-1049): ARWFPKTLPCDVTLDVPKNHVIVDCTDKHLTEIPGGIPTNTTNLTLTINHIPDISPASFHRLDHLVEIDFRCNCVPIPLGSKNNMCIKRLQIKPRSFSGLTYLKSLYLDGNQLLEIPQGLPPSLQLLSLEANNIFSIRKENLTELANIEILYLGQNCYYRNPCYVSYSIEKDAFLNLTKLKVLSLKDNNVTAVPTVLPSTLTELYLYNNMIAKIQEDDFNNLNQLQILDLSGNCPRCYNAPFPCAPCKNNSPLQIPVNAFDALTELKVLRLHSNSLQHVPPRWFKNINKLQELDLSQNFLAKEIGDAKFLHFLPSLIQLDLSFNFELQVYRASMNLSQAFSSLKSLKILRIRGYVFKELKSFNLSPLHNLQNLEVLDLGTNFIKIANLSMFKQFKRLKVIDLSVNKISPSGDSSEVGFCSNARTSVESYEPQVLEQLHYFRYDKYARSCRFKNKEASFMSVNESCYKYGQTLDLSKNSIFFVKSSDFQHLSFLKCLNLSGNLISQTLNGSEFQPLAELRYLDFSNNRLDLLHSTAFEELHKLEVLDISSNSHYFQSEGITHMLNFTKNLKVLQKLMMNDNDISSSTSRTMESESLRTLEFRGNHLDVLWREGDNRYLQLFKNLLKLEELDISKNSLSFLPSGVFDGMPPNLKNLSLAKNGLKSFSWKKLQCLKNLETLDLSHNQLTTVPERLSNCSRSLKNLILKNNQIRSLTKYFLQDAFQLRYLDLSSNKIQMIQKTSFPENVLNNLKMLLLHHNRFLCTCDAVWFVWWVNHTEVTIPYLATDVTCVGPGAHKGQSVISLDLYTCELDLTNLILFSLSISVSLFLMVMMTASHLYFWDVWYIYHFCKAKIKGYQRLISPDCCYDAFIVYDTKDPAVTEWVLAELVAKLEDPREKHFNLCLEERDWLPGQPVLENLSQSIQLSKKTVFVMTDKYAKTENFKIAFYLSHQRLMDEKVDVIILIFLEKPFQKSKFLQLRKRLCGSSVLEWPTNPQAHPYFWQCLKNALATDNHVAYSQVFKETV
human TLR9, sequence (Q9NR96 26-1032): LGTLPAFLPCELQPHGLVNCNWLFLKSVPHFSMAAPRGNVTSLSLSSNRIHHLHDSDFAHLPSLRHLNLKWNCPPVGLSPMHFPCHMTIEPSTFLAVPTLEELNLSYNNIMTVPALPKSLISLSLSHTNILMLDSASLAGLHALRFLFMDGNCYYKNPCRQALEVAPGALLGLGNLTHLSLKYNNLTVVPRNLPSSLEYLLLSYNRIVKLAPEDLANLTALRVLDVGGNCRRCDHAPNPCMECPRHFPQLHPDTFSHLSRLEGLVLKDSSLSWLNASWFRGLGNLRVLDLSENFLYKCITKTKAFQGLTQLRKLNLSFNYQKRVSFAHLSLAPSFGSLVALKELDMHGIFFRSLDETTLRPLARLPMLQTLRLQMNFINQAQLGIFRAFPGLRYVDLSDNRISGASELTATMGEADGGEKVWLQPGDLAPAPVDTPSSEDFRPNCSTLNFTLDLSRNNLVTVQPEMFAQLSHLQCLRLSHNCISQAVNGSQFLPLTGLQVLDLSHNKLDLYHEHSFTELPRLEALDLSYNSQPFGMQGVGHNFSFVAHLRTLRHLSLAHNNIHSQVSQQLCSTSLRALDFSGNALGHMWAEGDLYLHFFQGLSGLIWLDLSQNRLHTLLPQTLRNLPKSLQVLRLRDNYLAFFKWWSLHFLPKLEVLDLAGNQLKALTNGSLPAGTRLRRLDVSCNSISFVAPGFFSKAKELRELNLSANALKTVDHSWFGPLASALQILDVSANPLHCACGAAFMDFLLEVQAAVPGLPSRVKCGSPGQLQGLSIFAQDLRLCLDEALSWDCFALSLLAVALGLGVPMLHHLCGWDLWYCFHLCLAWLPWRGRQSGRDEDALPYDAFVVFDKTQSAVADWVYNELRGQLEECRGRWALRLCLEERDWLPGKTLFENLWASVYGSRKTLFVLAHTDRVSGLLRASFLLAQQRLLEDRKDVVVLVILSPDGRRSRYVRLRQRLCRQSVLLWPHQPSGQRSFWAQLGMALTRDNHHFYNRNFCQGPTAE
human TLR8, sequence (Q9NR97 27-1041): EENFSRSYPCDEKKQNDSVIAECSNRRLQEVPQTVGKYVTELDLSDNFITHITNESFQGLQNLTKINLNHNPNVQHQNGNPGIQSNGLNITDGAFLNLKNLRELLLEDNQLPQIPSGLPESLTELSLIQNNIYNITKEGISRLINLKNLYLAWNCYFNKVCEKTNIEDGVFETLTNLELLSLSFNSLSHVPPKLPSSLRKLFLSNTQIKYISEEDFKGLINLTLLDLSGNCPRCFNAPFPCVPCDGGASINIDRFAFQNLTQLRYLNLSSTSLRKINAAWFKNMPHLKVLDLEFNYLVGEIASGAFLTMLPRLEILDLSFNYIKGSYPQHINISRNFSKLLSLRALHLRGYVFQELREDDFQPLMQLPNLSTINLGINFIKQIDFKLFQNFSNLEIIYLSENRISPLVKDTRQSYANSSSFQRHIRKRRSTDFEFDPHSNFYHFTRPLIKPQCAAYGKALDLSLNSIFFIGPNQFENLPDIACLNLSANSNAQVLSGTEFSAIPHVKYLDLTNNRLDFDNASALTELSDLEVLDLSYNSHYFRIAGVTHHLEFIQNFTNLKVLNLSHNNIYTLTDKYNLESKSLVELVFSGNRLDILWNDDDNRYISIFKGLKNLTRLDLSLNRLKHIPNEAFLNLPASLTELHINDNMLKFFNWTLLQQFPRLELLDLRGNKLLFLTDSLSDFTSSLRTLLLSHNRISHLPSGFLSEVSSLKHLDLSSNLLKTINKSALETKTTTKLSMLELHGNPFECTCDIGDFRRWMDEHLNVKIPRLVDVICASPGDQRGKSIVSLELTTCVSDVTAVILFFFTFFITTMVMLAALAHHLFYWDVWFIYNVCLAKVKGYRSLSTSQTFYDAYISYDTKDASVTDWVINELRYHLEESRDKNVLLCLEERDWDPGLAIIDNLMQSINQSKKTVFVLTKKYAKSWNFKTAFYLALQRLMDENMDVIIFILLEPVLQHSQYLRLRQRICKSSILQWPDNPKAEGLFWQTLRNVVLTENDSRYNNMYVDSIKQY

| SMILES | IC50 (human TLR7) [µM] | IC50 (human TLR8) [µM] | IC50 (human TLR9) [µM] |
| --- | --- | --- | --- |
| COc1ccc(-c2[nH]c3ccc(-c4ccnc(C(=O)N[C@H]5CC[C@H](C(C)(C)O)CC5)c4)cc3c2C(C)C)cc1OC [Example 13, 4-(2-(3,4-dimethoxyphenyl)-3-isopropyl-1H-indol-5-yl)-N-((1r,4r)-4-(2-hydroxypropan-2-yl)cyclohexyl)picolinamide] | 1.24 | 1.01 | > 50 |
| COc1ccc(-c2[nH]c3ccc(-c4ccnc(C(=O)N5CCNCC5)c4)cc3c2C(C)C)cc1OC [Example 14, (4-(2-(3,4-dimethoxyphenyl)-3-isopropyl-1H-indol-5-yl)pyridin-2-yl)(piperazin-1-yl)methanone] | 1.07 | 1.04 | > 50 |
| COc1ccc(-c2[nH]c3ccc(-c4nnc(C5CCN(C(=O)OC(C)(C)C)CC5)o4)cc3c2C(C)C)cc1OC [Example 19, tert-butyl 4-(5-(2-(3,4-dimethoxyphenyl)-3-isopropyl-1H-indol-5-yl)-1,3,4-oxadiazol-2-yl)piperidine-1-carboxylate] | 2.51 | 0.484 | > 50 |
| CNC(=O)CN1CCC(c2nnc(-c3ccc4[nH]c(-c5ccc(OC)c(OC)c5)c(C(C)C)c4c3)o2)CC1 [Example 23, 2-(4-(5-(2-(3,4-dimethoxyphenyl)-3-isopropyl-1H-indol-5-yl)-1,3,4-oxadiazol-2-yl)piperidin-1-yl)-N-methylacetamide] | 0.207 | 0.043 | 6.1 |
| COc1ccc(-c2[nH]c3ccc(-c4cccc(C(=O)NCCNC(C)=O)c4)cc3c2CC(F)(F)F)cc1OC [Example 26, N-(2-acetamidoethyl)-3-(2-(3,4-dimethoxyphenyl)-3-(2,2,2-trifluoroethyl)-1H-indol-5-yl)benzamide] | 1 | 0.073 | 32.9 |
| COc1ccc(-c2[nH]c3ccc(-c4cccc(C(=O)NCC#N)c4)cc3c2CC(F)(F)F)cc1OC [Example 27, N-(cyanomethyl)-3-(2-(3,4-dimethoxyphenyl)-3-(2,2,2-trifluoroethyl)-1H-indol-5-yl)benzamide] | 0.744 | 0.082 | 41.1 |
| COc1ccc(-c2[nH]c3ccc(-c4cccc(C(=O)NCC(N)=O)c4)cc3c2CC(F)(F)F)cc1OC [Example 28, N-(2-amino-2-oxoethyl)-3-(2-(3,4-dimethoxyphenyl)-3-(2,2,2-trifluoroethyl)-1H-indol-5-yl)benzamide] | 0.587 | 0.094 | 32.6 |
| COc1ccc(-c2[nH]c3ccc(-c4cccc(C(=O)NCCN5CCOCC5)c4)cc3c2CC(F)(F)F)cc1OC [Example 29, 3-(2-(3,4-dimethoxyphenyl)-3-(2,2,2-trifluoroethyl)-1H-indol-5-yl)-N-(2-morpholinoethyl)benzamide] | 0.416 | 0.055 | 7.29 |
| COc1ccc(-c2[nH]c3ccc(-c4cccc(C(=O)N5CCN(CC(=O)NC(C)C)CC5)c4)cc3c2CC(F)(F)F)cc1OC [Example 30, 2-(4-(3-(2-(3,4-dimethoxyphenyl)-3-(2,2,2-trifluoroethyl)-1H-indol-5-yl)benzoyl)piperazin-1-yl)-N-isopropylacetamide] | 1.99 | 0.165 | 14.3 |
| COc1ccc(-c2[nH]c3ccc(-c4cccc(C(=O)N5CCC(O)CC5)c4)cc3c2CC(F)(F)F)cc1OC [Example 31, (3-(2-(3,4-dimethoxyphenyl)-3-(2,2,2-trifluoroethyl)-1H-indol-5-yl)phenyl)(4-hydroxypiperidin-1-yl)methanone] | 0.895 | 0.307 | 25.8 |
| COc1ccc(-c2[nH]c3ccc(-c4cccc(C(=O)N5CCCC5C)c4)cc3c2CC(F)(F)F)cc1OC (stereo not drawn) [Example 32, (3-(2-(3,4-dimethoxyphenyl)-3-(2,2,2-trifluoroethyl)-1H-indol-5-yl)phenyl)(2-methylpyrrolidin-1-yl)methanone] | 2.62 | 1.11 | > 50 |
| COc1ccc(-c2[nH]c3ccc(-c4cccc(C(=O)N5CC[C@@H](O)C5)c4)cc3c2CC(F)(F)F)cc1OC [Example 34, (R)-(3-(2-(3,4-dimethoxyphenyl)-3-(2,2,2-trifluoroethyl)-1H-indol-5-yl)phenyl)(3-hydroxypyrrolidin-1-yl)methanone] | 0.776 | 0.199 | 14.7 |
| COc1ccc(-c2[nH]c3ccc(-c4cccc(C(=O)N(C)CCc5ccccn5)c4)cc3c2CC(F)(F)F)cc1OC [Example 35, 3-(2-(3,4-dimethoxyphenyl)-3-(2,2,2-trifluoroethyl)-1H-indol-5-yl)-N-methyl-N-(2-(pyridin-2-yl)ethyl)benzamide] | 0.974 | 0.071 | > 50 |
| COc1ccc(-c2[nH]c3ccc(-c4cccc(C(=O)N5CCN(c6ccncc6)CC5)c4)cc3c2CC(F)(F)F)cc1OC [Example 36, (3-(2-(3,4-dimethoxyphenyl)-3-(2,2,2-trifluoroethyl)-1H-indol-5-yl)phenyl)(4-(pyridin-4-yl)piperazin-1-yl)methanone] | 0.287 | 0.102 | 1.8 |

These reach a lower IC50 (human TLR7). Values come first.

| IC50 (human TLR7) [µM] | IC50 (human TLR8) [µM] | IC50 (human TLR9) [µM] | SMILES |
| --- | --- | --- | --- |
| 0.022 | 0.018 | 0.665 | COc1ccc(-c2[nH]c3ccc(-c4ccnc(C(=O)NC5CCN(C(C)C)CC5)c4)cc3c2C(C)C)cc1OC [Example 11, 4-(2-(3,4-dimethoxyphenyl)-3-isopropyl-1H-indol-5-yl)-N-(1-isopropylpiperidin-4-yl)picolinamide] |
| 0.069 | 0.037 | 2.16 | COc1ccc(-c2[nH]c3ccc(-c4ccnc(C(=O)NC5CCC(N)CC5)c4)cc3c2C(C)C)cc1OC (stereo not drawn) [Example 12, N-(4-aminocyclohexyl)-4-(2-(3,4-dimethoxyphenyl)-3-isopropyl-1H-indol-5-yl)picolinamide] |
| 0.027 | 0.0068 | 0.738 | Cc1cc(-c2[nH]c3ccc(-c4cccc(C(=O)N5CC6CNCC6C5)c4)cc3c2C(C)C)ccn1 (stereo not drawn) [Example 15, (hexahydropyrrolo[3,4-c]pyrrol-2(1H)-yl)(3-(3-isopropyl-2-(2-methylpyridin-4-yl)-1H-indol-5-yl)phenyl)methanone] |
| 0.149 | 0.039 | 14 | Cc1cc(-c2[nH]c3ccc(-c4cccc(C(=O)NC5CCN(C(C)C)CC5)c4)cc3c2C(C)C)ccn1 [Example 16, 3-(3-isopropyl-2-(2-methylpyridin-4-yl)-1H-indol-5-yl)-N-(1-isopropylpiperidin-4-yl)benzamide] |
| 0.108 | 0.017 | 6.44 | COc1ccc(-c2[nH]c3ccc(-c4nnc(C5CCN(CC(=O)N(C)C)CC5)o4)cc3c2C(C)C)cc1OC [Example 17, 2-(4-(5-(2-(3,4-dimethoxyphenyl)-3-isopropyl-1H-indol-5-yl)-1,3,4-oxadiazol-2-yl)piperidin-1-yl)-N,N-dimethylacetamide] |
| 0.042 | 0.0095 | 0.625 | CNCC(=O)N1CCC(c2nnc(-c3ccc4[nH]c(-c5ccc(OC)c(OC)c5)c(C(C)C)c4c3)o2)CC1 [Example 18, 1-(4-(5-(2-(3,4-dimethoxyphenyl)-3-isopropyl-1H-indol-5-yl)-1,3,4-oxadiazol-2-yl)piperidin-1-yl)-2-(methylamino)ethan-1-one] |
| 0.031 | 0.0048 | 0.821 | COc1ccc(-c2[nH]c3ccc(-c4nnc(C5CCN(C)CC5)o4)cc3c2C(C)C)cc1OC [Example 20, 2-(2-(3,4-dimethoxyphenyl)-3-isopropyl-1H-indol-5-yl)-5-(1-methylpiperidin-4-yl)-1,3,4-oxadiazole] |
| 0.06 | 0.02 | 0.626 | COc1ccc(-c2[nH]c3ccc(-c4nnc(C5CCN(C6CCN(C)CC6)CC5)o4)cc3c2C(C)C)cc1OC [Example 21, 2-(2-(3,4-dimethoxyphenyl)-3-isopropyl-1H-indol-5-yl)-5-(1′-methyl-[1,4′-bipiperidin]-4-yl)-1,3,4-oxadiazole] |
| 0.036 | 0.011 | 0.266 | COc1ccc(-c2[nH]c3ccc(-c4nnc(C5CCN(C6CCN(C(C)C)CC6)CC5)o4)cc3c2C(C)C)cc1OC [Example 22, 2-(2-(3,4-dimethoxyphenyl)-3-isopropyl-1H-indol-5-yl)-5-(1′-isopropyl-[1,4′-bipiperidin]-4-yl)-1,3,4-oxadiazole] |
| 0.056 | 0.0037 | 0.179 | CNCCN1CCC(c2nnc(-c3ccc4[nH]c(-c5ccc(OC)c(OC)c5)c(C(C)C)c4c3)o2)CC1 [Example 24, 2-(4-(5-(2-(3,4-dimethoxyphenyl)-3-isopropyl-1H-indol-5-yl)-1,3,4-oxadiazol-2-yl)piperidin-1-yl)-N-methylethan-1-amine] |
| 0.19 | 0.088 | 1.38 | COc1ccc(-c2[nH]c3ccc(-c4cccc(C(=O)NCCC5CCCN5C)c4)cc3c2CC(F)(F)F)cc1OC (stereo not drawn) [Example 25, 3-(2-(3,4-dimethoxyphenyl)-3-(2,2,2-trifluoroethyl)-1H-indol-5-yl)-N-(2-(1-methylpyrrolidin-2-yl)ethyl)benzamide] |
